{"source": "paper PMC11653702", "about": "“Targeting the SPC25/RIOK1/MYH9 Axis to Overcome Tumor Stemness and Platinum Resistance in Epithelial Ovarian Cancer” (Advanced Science, 2024)", "key": {"[1]": {"tested_on": "OVCAR8 xenografted tumor tissues", "assay": "TUNEL assay in intraperitoneal xenografted tumor tissues, OVCAR8", "format": "in vivo, human EOC cells in BALB/c-Nude mice", "conditions": "for TUNEL+ cell (%): #1-#6; for TUNEL assay: animal model OVCAR8", "protocol": "(§1) In the intraperitoneal tumor model, 1 × 10^6 of the indicated cells stably expressing luciferase were injected intraperitoneally into the mice. Treatment with saline (Vehicle), CDDP (5 mg/kg, 3 times per week for 1 week), CBP1 (10 mg/kg, once in 2 days), or a combination of CDDP (5 mg/kg, 3 times per week for 1 week) and CBP1 (10 mg/kg, once in 2 days) was initiated when the bioluminescence signal reached 2 × 10^7 p/s/cm^2/sr for 6 weeks of continuous treatment cycles. The mice were sacrificed when they became moribund, as determined by an observer blinded to the treatment. Finally, their tumors were excised for qRT‐PCR and Western blotting.\n(§2) TUNEL Assay: The TUNEL staining procedure was conducted on the DeadEnd Fluorometric TUNEL System (#G3250; Promega), according to the manufacturer’s instructions. In brief, paraffin-embedded sections were baked at 65°C for 60 min, followed by three washes in a xylene bath. The sections were then washed in a series of absolute ethanol, 95% ethanol, and 70% ethanol, and finally, in PBS. Then, each section was treated with proteinase K at 37°C for 30 min and washed three times with PBS. Thereafter, the sections were incubated with […] (containing Biotin-11-dUTP and TdT Enzyme) at 37 ℃ for 1 h in the dark, followed by three PBS washes. The samples were subsequently incubated with streptavidin–fluorescein at 37 ℃ for 30 min in the dark, followed by three washes with PBS. DAPI was used to stain the nucleus. Finally, the experimental outcomes were observed under a fluorescence microscope, and the percentages of TUNEL-positive cells were quantified from 10 randomly selected fields."}, "caspase-3 and PARP": {"tested_on": "caspase-3 and PARP", "assay": "Western blotting of apoptosis-related proteins in xenografted tumor tissues", "format": "in vivo, human EOC cells in BALB/c-Nude mice", "conditions": "SPC25-overexpressing OVCAR3 tumors, CDDP", "protocol": "as §1\nWestern Blotting: Western blotting was performed using primary antibodies detailed in Table S5 (Supporting Information). Western blotting grayscale analyses were performed using ImageJ (version 2.0.0; NIH, Bethesda, MD, USA). β-Catenin expression was quantified by determining the gray level of each band using Image J and normalized using α-tubulin."}, "OVCAR8 cells [2]": {"tested_on": "OVCAR8 cells", "assay": "Cell Counting Kit-8 viability, OVCAR8", "format": "cell-based, human", "conditions": "SPC25-silenced OVCAR8", "protocol": "(§3) Cell Viability Assay: The indicated cells were seeded into 96-well plates at a density of 4 × 10^3 cells per well. Next, the Cell Counting Kit-8 reagent (Dojindo) was added to the wells, followed by incubation at 37°C for 2 h in the dark, after which the optical density at 450 nm was determined on a microplate reader (EPOCH2; BioTek, USA). Each cell line was represented using triplicate wells, and the experiment was repeated three times."}, "[3]": {"tested_on": "OVCAR3 xenografted tumor tissues", "assay": "TUNEL assay in intraperitoneal xenografted tumor tissues, OVCAR3", "format": "in vivo, human EOC cells in BALB/c-Nude mice", "conditions": "for TUNEL+ cell (%): CDDP-treated mice, #1-#6", "protocol": "as §1, §2"}, "COV644 cells [4]": {"tested_on": "COV644 cells", "assay": "Cell Counting Kit-8 viability, COV644", "format": "cell-based, human", "conditions": "SPC25-overexpressing COV644", "protocol": "as §3"}, "SKOV3 cells": {"tested_on": "SKOV3 cells", "assay": "Annexin V/PI apoptosis, SKOV3", "format": "cell-based, human", "conditions": "replicates #1-#3", "protocol": "(§4) Fluorescence-Activated Cell Sorting Assay: For apoptosis analysis, we used an Annexin V-FITC/PI Apoptosis Detection Kit (#A211-01; Vazyme Biotech), according to the manufacturer’s instructions. We considered the total proportion of Annexin V-positive cells (quadrants II and III) to be the apoptotic rate, regardless of the PI status. All samples were analyzed on a flow cytometer (cytoFLEX LX; Beckman Coulter, Indianapolis, IN, USA), and percentages of apoptotic cells were analyzed using CytExpert (Beckman Coulter)."}, "OVCAR8 cells [5]": {"tested_on": "OVCAR8 cells", "assay": "Intraperitoneal tumor model, bioluminescence, OVCAR8", "format": "in vivo, human EOC cells in BALB/c-Nude mice", "conditions": "SPC25-silenced OVCAR8, CDDP", "source_text": "(§5) Subsequently, we selected 4 representative EOC cell lines (Figure S1F,G, Supporting Information) and validated the role of SPC25 in mediating platinum resistance in EOC through a series of in vitro and in vivo experiments. […] To further establish an EOC mouse model, we intraperitoneally injected BALB/c‐Nude mice with EOC cells with stable luciferase expression. CDDP treatment (three times per week, a week as a cycle) was initiated when the bioluminescence signal reached 2 × 10^7 p/s/cm^2/sr.\nas §1"}, "OVCAR8 cells [6]": {"tested_on": "OVCAR8 cells", "assay": "Survival of intraperitoneal tumor-bearing nude mice, OVCAR8", "format": "in vivo, human EOC cells in BALB/c-Nude mice", "set-up": "key to Survival status: 0: Alive; 1: Dead", "conditions": "for Survival status / Survival time (Days after CDDP treatment): Balb/c Nude mice; for Survival time (Days after CDDP treatment): >= means alive at this day", "source_text": "as §5, §1"}, "OVCAR3 cells [7]": {"tested_on": "OVCAR3 cells", "assay": "Cell Counting Kit-8 viability, OVCAR3", "format": "cell-based, human", "conditions": "SPC25-overexpressing OVCAR3", "protocol": "as §3"}, "COV644 cells [8]": {"tested_on": "COV644 cells", "assay": "Annexin V/PI apoptosis, COV644", "format": "cell-based, human", "conditions": "for PI+/AnnexinV+: replicates #1-#3", "protocol": "as §4"}, "OVCAR3 cells [9]": {"tested_on": "OVCAR3 cells", "assay": "Survival of intraperitoneal tumor-bearing nude mice, OVCAR3", "format": "in vivo, human EOC cells in BALB/c-Nude mice", "source_text": "as §5, §1"}, "OVCAR3 cells [10]": {"tested_on": "OVCAR3 cells", "assay": "Annexin V/PI apoptosis, OVCAR3", "format": "cell-based, human", "conditions": "for PI+/AnnexinV+: replicates #1-#3", "protocol": "as §4"}, "[11]": {"conditions": "SPC25-overexpressing OVCAR3, CDDP"}}, "note": "Several values for one entry are separate records, joined by “and”; a condition that tells them apart may be missing. Equal entries are not always repeated.", "data": [{"smiles": "[NH2][Pt]([NH2])([Cl])[Cl]", "note": "[CDDP, cisplatin]", "values": [{"measurement": "TUNEL+ cell (%)", "setting": "[1]; OVCAR8 sh-SPC25#1, CDDP-treated mice", "value": "27.13% and 29.66% and 28.67% and 22.53% and 32.03% and 26.06%"}, {"measurement": "TUNEL+ cell (%)", "setting": "[1]; OVCAR8 sh-Scramble, CDDP-treated mice", "value": "5.89% and 11.46% and 4.76% and 9.62% and 7.34% and 8.41%"}, {"measurement": "TUNEL assay", "setting": "[1]; animal #1", "value": 10.02, "unit": "%"}, {"measurement": "TUNEL assay", "setting": "[1]; animal #2", "value": 8.97, "unit": "%"}, {"measurement": "TUNEL assay", "setting": "[1]; animal #3", "value": 6.23, "unit": "%"}, {"measurement": "TUNEL assay", "setting": "[1]; animal #4", "value": 11.92, "unit": "%"}, {"measurement": "TUNEL assay", "setting": "[1]; animal #5", "value": 7.56, "unit": "%"}, {"measurement": "TUNEL assay", "setting": "[1]; animal #6", "value": 8.03, "unit": "%"}, {"measurement": "TUNEL assay", "setting": "[1]; animal #7", "value": 7.63, "unit": "%"}, {"measurement": "activation of caspase-3 and PARP", "setting": "caspase-3 and PARP", "value": "lowered activation"}, {"measurement": "CDDP sensitivity", "setting": "OVCAR8 cells [2]", "value": "enhanced CDDP sensitivity"}, {"measurement": "TUNEL+ cell (%)", "setting": "[3]; OVCAR3 SPC25-overexpressing", "value": "8.84% and 3.44% and 6.27% and 4.43% and 7.25% and 8.02%"}, {"measurement": "TUNEL+ cell (%)", "setting": "[3]; OVCAR3 Vector", "value": "31.16% and 27.27% and 21.88% and 26.01% and 32.74% and 29.56%"}, {"measurement": "TUNEL-positive cells", "setting": "[3]; [11]", "value": "reduced number"}, {"measurement": "cell growth in presence of CDDP", "setting": "COV644 cells [4]", "value": "significantly promoted growth"}, {"measurement": "PI+/AnnexinV+", "setting": "SKOV3 cells; SKOV3 Scramble, CDDP 10μM", "value": "8.18 and 6.89 and 9.75"}, {"measurement": "PI+/AnnexinV+", "setting": "SKOV3 cells; SKOV3 sh-SPC25#1, CDDP 10μM", "value": "30.36 and 26.95 and 22.58"}, {"measurement": "PI+/AnnexinV+", "setting": "SKOV3 cells; SKOV3 sh-SPC25#2, CDDP 10μM", "value": "29.63 and 24.64 and 23.77"}, {"measurement": "CDDP sensitivity, apoptotic index and survival", "setting": "OVCAR8 cells [5]", "value": "increase in CDDP sensitivity and apoptotic index, as well as prolonged survival"}, {"measurement": "Survival status", "setting": "OVCAR8 cells [6]; at the day of E151, animal 1", "value": 1}, {"measurement": "Survival status", "setting": "OVCAR8 cells [6]; at the day of E152, animal 2", "value": 1}, {"measurement": "Survival status", "setting": "OVCAR8 cells [6]; at the day of E153, animal 3", "value": 1}, {"measurement": "Survival status", "setting": "OVCAR8 cells [6]; at the day of E154, animal 4", "value": 1}, {"measurement": "Survival status", "setting": "OVCAR8 cells [6]; at the day of E155, animal 5", "value": 1}, {"measurement": "Survival status", "setting": "OVCAR8 cells [6]; at the day of E156, animal 6", "value": 1}, {"measurement": "Survival status", "setting": "OVCAR8 cells [6]; at the day of E157, animal 7", "value": 1}, {"measurement": "Survival time (Days after CDDP treatment)", "setting": "OVCAR8 cells [6]; animal 1", "value": 59, "unit": "days"}, {"measurement": "Survival time (Days after CDDP treatment)", "setting": "OVCAR8 cells [6]; animal 2", "value": 50, "unit": "days"}, {"measurement": "Survival time (Days after CDDP treatment)", "setting": "OVCAR8 cells [6]; animal 3", "value": 52, "unit": "days"}, {"measurement": "Survival time (Days after CDDP treatment)", "setting": "OVCAR8 cells [6]; animal 4", "value": 56, "unit": "days"}, {"measurement": "Survival time (Days after CDDP treatment)", "setting": "OVCAR8 cells [6]; animal 5", "value": 57, "unit": "days"}, {"measurement": "Survival time (Days after CDDP treatment)", "setting": "OVCAR8 cells [6]; animal 6", "value": 60, "unit": "days"}, {"measurement": "Survival time (Days after CDDP treatment)", "setting": "OVCAR8 cells [6]; animal 7", "value": 61, "unit": "days"}, {"measurement": "Survival, days after CDDP treatment", "setting": "OVCAR8 cells [6]; OVCAR8 sh-SPC25#1, status 0, individual mice", "value": "63 days and 79 days and 89 days"}, {"measurement": "Survival, days after CDDP treatment", "setting": "OVCAR8 cells [6]; OVCAR8 sh-SPC25#1, status 1, individual mice", "value": "72 days and 59 days and 60 days"}, {"measurement": "Survival, days after CDDP treatment", "setting": "OVCAR8 cells [6]; OVCAR8 sh-Scramble, status 1, individual mice", "value": "54 days and 50 days and 55 days and 53 days and 57 days"}, {"measurement": "cell growth in presence of CDDP", "setting": "OVCAR3 cells [7]", "value": "significantly promoted growth"}, {"measurement": "PI+/AnnexinV+", "setting": "COV644 cells [8]; COV644 SPC25, CDDP 10μM", "value": "9.53 and 5.89 and 7.71"}, {"measurement": "PI+/AnnexinV+", "setting": "COV644 cells [8]; COV644 Vector, CDDP 10μM", "value": "23.38 and 26.97 and 27.94"}, {"measurement": "CDDP-induced apoptosis", "setting": "COV644 cells [8]; SPC25-overexpressing COV644", "value": "considerably reduced"}, {"measurement": "Survival, days after CDDP treatment", "setting": "OVCAR3 cells [9]; OVCAR3 SPC25-overexpressing, status 1, individual mice", "value": "50 days and 52 days and 51 days and 55 days and 62 days"}, {"measurement": "Survival, days after CDDP treatment", "setting": "OVCAR3 cells [9]; OVCAR3 Vector, status 0, individual mice", "value": "70 days and 64 days and 82 days and 85 days"}, {"measurement": "Survival, days after CDDP treatment", "setting": "OVCAR3 cells [9]; OVCAR3 Vector, status 1, individual mice", "value": "58 days and 62 days"}, {"measurement": "survival of tumor-bearing mice", "setting": "OVCAR3 cells [9]; [11]", "value": "decreased survival"}, {"measurement": "PI+/AnnexinV+", "setting": "OVCAR3 cells [10]; OVCAR3 SPC25, CDDP 10μM", "value": "9.75 and 8.73 and 6.45"}, {"measurement": "PI+/AnnexinV+", "setting": "OVCAR3 cells [10]; OVCAR3 Vector, CDDP 10μM", "value": "21.37 and 25.13 and 28.24"}, {"measurement": "CDDP-induced apoptosis", "setting": "OVCAR3 cells [10]; SPC25-overexpressing OVCAR3", "value": "considerably reduced"}]}]}
